From patent publication US12251387B2, “Substituted quinoxalines and benzo[c][1,2,5]oxadiazoles as DNA-PK inhibitors” (Vertex Pharmaceuticals Incorporated, priority 2013, dated 2025)

Each compound was assayed against DNA-PK (Homo sapiens, UniProt P78527) (assay: DNA-PK Inhibition Assay (standard radiometric kinase assay, 33P-ATP, peptide substrate)). Details: radiometric assay, approximately 6 nM DNA-PK, 100 μM ATP, 45 min; fit to competitive tight-binding inhibition; read-out: Ki for the inhibition of DNA-PK.
Format: biochemical
Experimental: Compounds were screened for their ability to inhibit DNA-PK kinase using a standard radiometric assay. Briefly, in this kinase assay the transfer of the terminal ^33P-phosphate in ^33P-ATP to a peptide substrate is interrogated. The assay was carried out in 384-well plates to a final volume of 50 μL per well containing approximately 6 nM DNA-PK, 50 mM HEPES (pH 7.5), 10 mM MgCl2, 25 mM NaCl, 0.01% BSA, 1 mM DTT, 10 μg/mL sheared double-stranded DNA (obtained from Sigma), 0.8 mg/mL DNA-PK peptide (Glu-Pro-Pro-Leu-Ser-Gln-Glu-Ala-Phe-Ala-Asp-Leu-Trp-Lys-Lys-Lys, obtained from American Peptide), and 100 μM ATP. Accordingly, compounds of the invention were dissolved in DMSO to make 10 mM initial stock solutions. Serial dilutions in DMSO were then made to obtain the final solutions for the assay. A 0.75 μL aliquot of DMSO or inhibitor in DMSO was added to each well, followed by the addition of ATP substrate solution containing ^33P-ATP (obtained from Perkin Elmer). The reaction was started by the addition of DNA-PK, peptide and ds-DNA. After 45 min, the reaction was quenched with 25 μL of 5% phosphoric acid. The reaction mixture was transferred to MultiScreen HTS 384-well PH plates (obtained from Millipore), allowed to bind for one hour, and washed three times with 1% phosphoric acid. Following the addition of 50 μL of Ultima Gold™ high efficiency scintillant (obtained from Perkin Elmer), the samples were counted in a Packard TopCount NXT Microplate Scintillation and Luminescence Counter (Packard BioScience). The Ki values were calculated using Microsoft Excel Solver macros to fit the data to the kinetic model for competitive tight-binding inhibition.

| SMILES | Ki |
| --- | --- |
| COc1nc(N[C@H]2CC[C@@H](Oc3cc(N4CCOCC4)cc4nccnc34)CC2)nc(OC)n1 [Compound 608] | < 100 nM |
| CC(C)c1ccnc(N[C@H]2CC[C@@H](Oc3cc(N4CCOCC4)cc4nccnc34)CC2)n1 [Compound 634] | < 100 nM |
| Cc1cccnc1N[C@H]1CC[C@@H](Oc2cc(N3CCOCC3)cc3nccnc23)CC1 [Compound 586] | < 100 nM |
| CN1CCN(Cc2nccc(N[C@H]3CC[C@@H](Oc4cc(N5CCOCC5)cc5nccnc45)CC3)n2)CC1 [Compound 484] | < 100 nM |
| Cn1ccc(N[C@H]2CC[C@@H](Oc3cc(N4CCOCC4)cc4nccnc34)CC2)n1 [Compound 649] | < 100 nM |
| Cc1nccc(N[C@H]2CC[C@@H](Oc3cc(C4=COCC4)cc4nccnc34)CC2)n1 [Compound 288] | < 100 nM |
| CNc1nc(N[C@H]2CC[C@@H](Oc3cc(N4CCOCC4)cc4nccnc34)CC2)cc(=O)[nH]1 [Compound 400] | < 100 nM |
| c1cc2ccoc2c(N[C@H]2CC[C@@H](Oc3cc(N4CCOCC4)cc4nccnc34)CC2)n1 [Compound 470] | < 100 nM |
| CN(C)c1ncnc(N[C@H]2CC[C@@H](Oc3cc(N4CCOCC4)cc4nccnc34)CC2)c1F [Compound 512] | < 100 nM |
| c1cc(CN2CCOCC2)nc(N[C@H]2CC[C@@H](Oc3cc(N4CCOCC4)cc4nccnc34)CC2)n1 [Compound 505] | < 100 nM |
| CC(C)NC(=O)c1cc(N[C@H]2CC[C@@H](Oc3cc(N4CCOCC4)cc4nccnc34)CC2)ncn1 [Compound 643] | < 100 nM |
| c1cnc(NC[C@H]2C[C@@H](Oc3cc(N4CCOCC4)cc4nccnc34)C2)nc1 [Compound 307] | < 100 nM |
| c1cnc(NC[C@H]2CC[C@@H](Oc3cc(N4CCOCC4)cc4nccnc34)CC2)nc1 [Compound 348] | < 100 nM |
| c1cnc2c(O[C@H]3CC[C@@H](Nc4cc5ncnn5cn4)CC3)cc(N3CCOCC3)cc2n1 [Compound 510] | < 100 nM |
| N#CCCN1CCC(c2cnc(N[C@H]3CC[C@@H](Oc4cc(N5CCOCC5)cc5nccnc45)CC3)nc2)CC1 [Compound 519] | < 100 nM |
| Fc1c(NC2CCOC2)ncnc1N[C@H]1CC[C@@H](Oc2cc(N3CCOCC3)cc3nccnc23)CC1 (stereo partly shown) [Compound 379] | < 100 nM |
| c1cnc2c(O[C@H]3CC[C@@H](Nc4cc5[nH]ccc5cn4)CC3)cc(N3CCOCC3)cc2n1 [Compound 540] | < 100 nM |
| O=c1cc(N[C@H]2CC[C@@H](Oc3cc(N4CCOCC4)cc4nccnc34)CC2)cc[nH]1 [Compound 325] | < 100 nM |
| CCCc1nc(C)cc(N[C@H]2CC[C@@H](Oc3cc(N4CCOCC4)cc4nccnc34)CC2)n1 [Compound 618] | < 100 nM |
| Cn1ccc2c(N[C@H]3CC[C@@H](Oc4cc(N5CCOCC5)cc5nccnc45)CC3)ncnc21 [Compound 384] | < 100 nM |
| Cc1nnc2c(N[C@H]3CC[C@@H](Oc4cc(N5CCOCC5)cc5nccnc45)CC3)nccn12 [Compound 310] | < 100 nM |
| c1cc(N[C@H]2CC[C@@H](Oc3cc(N4CCOCC4)cc4nccnc34)CC2)nc(OCCN2CCCCC2)n1 [Compound 493] | < 100 nM |

| SMILES | Ki |
| --- | --- |
| COc1cnc(Cl)nc1N[C@H]1CC[C@@H](Oc2cc(N3CCOCC3)cc3nccnc23)CC1 [Compound 401] | < 100 nM |
| CN(C)C(=O)c1ccnc(N[C@H]2CC[C@@H](Oc3cc(N4CCOCC4)cc4nccnc34)CC2)n1 [Compound 351] | < 100 nM |
| CNc1ncnc(N[C@H]2CC[C@@H](Oc3cc(N4CCOCC4)cc4nccnc34)CC2)c1F [Compound 469] | < 100 nM |
| CCN1CCC(c2cnc(N[C@H]3CC[C@@H](Oc4cc(N5CCOCC5)cc5nccnc45)CC3)nc2)CC1 [Compound 523] | < 100 nM |
| OCc1cc(N[C@H]2CC[C@@H](Oc3cc(N4CCOCC4)cc4nccnc34)CC2)ncn1 [Compound 424] | < 100 nM |
| O=C(N[C@H]1CC[C@@H](Oc2cc(N3CCOCC3)cc3nccnc23)CC1)N1CCOCC1 [Compound 412] | < 100 nM |
| CCc1ccnc(N[C@H]2CC[C@@H](Oc3cc(N4CCOCC4)cc4nccnc34)CC2)n1 [Compound 633] | < 100 nM |
| CN(C)C(=O)c1cc(N[C@H]2CC[C@@H](Oc3cc(N4CCOCC4)cc4nccnc34)CC2)ncn1 [Compound 361] | < 100 nM |
| Clc1cncnc1N[C@H]1CC[C@@H](Oc2cc(N3CCOCC3)cc3nccnc23)CC1 [Compound 409] | < 100 nM |
| [2H]C([2H])([2H])c1nccc(N[C@H]2CC[C@@H](Oc3cc(N4CCOCC4)cc4nccnc34)CC2)n1 [Compound 478] | < 100 nM |
| Clc1cc2nccn2c(N[C@H]2CC[C@@H](Oc3cc(N4CCOCC4)cc4nccnc34)CC2)n1 [Compound 538] | < 100 nM |
| CC(C)(C)OC(=O)N1CCC(c2ccnc(N[C@H]3CC[C@@H](Oc4cc(N5CCOCC5)cc5nccnc45)CC3)n2)CC1 [Compound 557] | < 100 nM |
| O=C(NCC1CCCCC1)N[C@H]1CC[C@@H](Oc2cc(N3CCOCC3)cc3nccnc23)CC1 [Compound 410] | < 100 nM |
| CN(C)CCOc1cnc(N[C@H]2CC[C@@H](Oc3cc(N4CCOCC4)cc4nccnc34)CC2)nc1 [Compound 624] | < 100 nM |
| COC(c1ccc(N[C@H]2CC[C@@H](Oc3cc(N4CCOCC4)cc4nccnc34)CC2)nc1)C(F)(F)F (stereo partly shown) [Compound 629] | < 100 nM |
| Clc1nccc(N[C@H]2CC[C@@H](Oc3cc(N4CCOCC4)cc4nccnc34)CC2)n1 [Compound 533] | < 100 nM |
| Cc1ncc(F)c(N[C@H]2CC[C@@H](Oc3cc(N4CCOCC4)cc4nccnc34)CC2)n1 [Compound 494] | < 100 nM |
| CN1CCC(c2cnc(N(C)[C@H]3CC[C@@H](Oc4cc(N5CCOCC5)cc5nccnc45)CC3)nc2)CC1 [Compound 657] | < 100 nM |
| Cc1nc2c(c(N[C@H]3CC[C@@H](Oc4cc(N5CCOCC5)cc5nccnc45)CC3)n1)OCC2 [Compound 403] | < 100 nM |
| Cc1cnc(N[C@H]2CC[C@@H](Oc3cc(N4CCOCC4)cc4nccnc34)CC2)nc1C [Compound 467] | < 100 nM |
| c1cc(N[C@H]2CC[C@@H](Oc3cc(N4CCOCC4)cc4nccnc34)CC2)cnn1 [Compound 354] | < 100 nM |
| COc1cc(N[C@H]2CC[C@@H](Oc3cc(N4CCOCC4)cc4nccnc34)CC2)ccn1 [Compound 440] | < 100 nM |

| SMILES | Ki |
| --- | --- |
| Fc1c(N[C@H]2CC[C@@H](Oc3cc(N4CCOCC4)cc4nccnc34)CC2)ncnc1C1CC1 [Compound 456] | < 100 nM |
| Cn1ncc2c(N[C@H]3CC[C@@H](Oc4cc(N5CCOCC5)cc5nccnc45)CC3)ncnc21 [Compound 545] | < 100 nM |
| O=C(O)c1cc(N[C@H]2CC[C@@H](Oc3cc(N4CCOCC4)cc4nccnc34)CC2)ncn1 [Compound 653] | < 100 nM |
| COCCOc1cc(N[C@H]2CC[C@@H](Oc3cc(N4CCOCC4)cc4nccnc34)CC2)ncn1 [Compound 539] | < 100 nM |
| c1cnc2c(O[C@H]3CC[C@@H](Nc4ccc(OC5COC5)cn4)CC3)cc(N3CCOCC3)cc2n1 [Compound 638] | < 100 nM |
| CN1CCN(CCCOc2cnc(N[C@H]3CC[C@@H](Oc4cc(N5CCOCC5)cc5nccnc45)CC3)nc2)CC1 [Compound 508] | < 100 nM |
| CN(C)Cc1cc(N[C@H]2CC[C@@H](Oc3cc(N4CCOCC4)cc4nccnc34)CC2)ncn1 [Compound 390] | < 100 nM |
| CCOc1cc(N[C@H]2CC[C@@H](Oc3cc(N4CCOCC4)cc4nccnc34)CC2)ccn1 [Compound 324] | < 100 nM |
| CC(C)Nc1cnc(N[C@H]2CC[C@@H](Oc3cc(N4CCOCC4)cc4nccnc34)CC2)nc1 [Compound 152] | < 100 nM |
| Cc1nc(C)c(C)c(N[C@H]2CC[C@@H](Oc3cc(N4CCOCC4)cc4nccnc34)CC2)n1 [Compound 436] | < 100 nM |
| CN1CCN(c2ccc(N[C@H]3CC[C@@H](Oc4cc(N5CCOCC5)cc5nccnc45)CC3)nc2)CC1 [Compound 626] | < 100 nM |
| CN1CCN(c2nccc(N[C@H]3CC[C@@H](Oc4cc(N5CCOCC5)cc5nccnc45)CC3)n2)CC1 [Compound 535] | < 100 nM |
| CNC(=O)c1ccnc(N[C@H]2CC[C@@H](Oc3cc(N4CCOCC4)cc4nccnc34)CC2)n1 [Compound 350] | < 100 nM |
| CN(C)Cc1cnc(N[C@H]2CC[C@@H](Oc3cc(N4CCOCC4)cc4nccnc34)CC2)nc1 [Compound 529] | < 100 nM |
| c1cc(N[C@H]2CC[C@@H](Oc3cc(N4CCOCC4)cc4nccnc34)CC2)ncn1 [Compound 486] | < 100 nM |
| CN1CCN(C(=O)c2cnc(N[C@H]3CC[C@@H](Oc4cc(N5CCOCC5)cc5nccnc45)CC3)nc2)CC1 [Compound 337] | < 100 nM |
| CNC(=O)c1cc(N[C@H]2CC[C@@H](Oc3cc(N4CCOCC4)cc4nccnc34)CC2)ccc1F [Compound 405] | < 100 nM |
| c1cc2ncnn2c(N[C@H]2CC[C@@H](Oc3cc(N4CCOCC4)cc4nccnc34)CC2)n1 [Compound 542] | < 100 nM |
| CCOc1ccc(N[C@H]2CC[C@@H](Oc3cc(N4CCOCC4)cc4nccnc34)CC2)nc1 [Compound 658] | < 100 nM |
| FC(F)(F)c1cnc(N[C@H]2CC[C@@H](Oc3cc(N4CCOCC4)cc4nccnc34)CC2)cn1 [Compound 366] | < 100 nM |
